Consider 2 compounds from US20250214967A1, “FAK DEGRADERS, PHARMACEUTICAL COMPOSITIONS, AND THERAPEUTIC APPLICATIONS” (Berrybio (Shanghai) Limited, priority 2022, published 2025).

The target of test [1] is T1, FAK (Homo sapiens (Human), UniProt Q05397). The test can be described thus: FAK Degradation Assay (Western blot, FAK/GAPDH). The test is classed as cell-based. The following applies: MDA-MB-231 cells, 24 h treatment, Western blot normalized to DMSO; for DC50: read-out: DC50 (half-maximal degradation concentration), FAK Degradation; for Dmax: read-out: Dmax (maximal degradation), FAK Degradation. A digest of the protocol:
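H2122, MIA PaCa-2 or MDA-MB-231 cells treated with compound concentration series for 24 h at 37 °C, then lysed in RIPA. Equal-protein lysates Western blotted for FAK and GAPDH with ECL detection; FAK/GAPDH band ratios normalised to DMSO gave DC50 and Dmax.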
Target sequence in this assay (Q05397 whole entry): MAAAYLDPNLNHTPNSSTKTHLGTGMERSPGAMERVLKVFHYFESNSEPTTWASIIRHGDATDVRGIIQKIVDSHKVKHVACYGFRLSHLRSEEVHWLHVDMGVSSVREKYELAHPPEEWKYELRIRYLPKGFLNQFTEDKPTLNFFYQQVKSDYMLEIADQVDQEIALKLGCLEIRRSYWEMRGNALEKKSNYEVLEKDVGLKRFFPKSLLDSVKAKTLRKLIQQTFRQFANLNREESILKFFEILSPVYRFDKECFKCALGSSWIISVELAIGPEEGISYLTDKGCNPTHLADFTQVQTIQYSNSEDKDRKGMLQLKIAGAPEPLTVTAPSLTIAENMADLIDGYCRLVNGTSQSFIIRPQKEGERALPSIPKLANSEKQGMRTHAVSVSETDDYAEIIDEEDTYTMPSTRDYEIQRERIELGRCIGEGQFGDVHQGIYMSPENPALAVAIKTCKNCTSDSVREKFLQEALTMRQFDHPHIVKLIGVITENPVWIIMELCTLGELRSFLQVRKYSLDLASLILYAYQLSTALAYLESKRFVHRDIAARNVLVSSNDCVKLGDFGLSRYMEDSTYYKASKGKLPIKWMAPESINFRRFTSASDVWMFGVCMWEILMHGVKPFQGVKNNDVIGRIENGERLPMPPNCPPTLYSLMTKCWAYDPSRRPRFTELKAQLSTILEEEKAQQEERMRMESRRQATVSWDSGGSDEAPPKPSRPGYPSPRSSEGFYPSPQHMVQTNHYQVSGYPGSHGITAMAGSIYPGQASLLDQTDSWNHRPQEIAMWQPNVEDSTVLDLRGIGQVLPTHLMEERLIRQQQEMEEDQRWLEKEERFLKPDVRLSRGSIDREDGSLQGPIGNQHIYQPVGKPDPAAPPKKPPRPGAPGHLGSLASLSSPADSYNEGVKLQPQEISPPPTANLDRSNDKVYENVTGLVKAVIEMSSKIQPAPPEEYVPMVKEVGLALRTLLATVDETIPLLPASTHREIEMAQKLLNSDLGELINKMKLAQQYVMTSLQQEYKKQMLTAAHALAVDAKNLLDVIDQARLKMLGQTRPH

In test [2] the target is T1, FAK. Kind of test: FAK Kinase Assay (TR-FRET, LanthaScreen). The test is classed as biochemical. The following applies: FAK 1 nM, ATP 6.8 μM, fluorescein-polyGT 0.2 μM, 30 min; read-out: IC50, FAK Inhibition. Here is the method:
The inhibitory activity of a compound against FAK was determined in a buffer containing 5 mM HEPES, pH 7.5, 0.01% Triton, 0.5 mM EGTA, and 0.01% BRIJ™-35 in a 384-well assay plate. The assay was carried out in the presence of the FAK at 1 nM and ATP at 6.8 μM using fluorescein-polyGT (0.2 μM) as an FAK substrate. Each assay mixture was incubated at room temperature for 30 min. A LANTHASCREEN® Tb-PY20 antibody was added to each well to stop the enzymatic reaction. The plate was incubated at room temperature for 60 min before reading on an ENVISION using TR-FRET module (excitation at 340 nm and emission at 520 nm and 495 nm).
Target sequence in this assay (Q05397 whole entry, species assumed): as the sequence (Q05397 whole entry) above

SMILES strings stand for the structures. pIC50: −log10 of the molar value.

In the case of `CN(c1nccnc1CNc1nc(Nc2ccc(C(=O)NC3CCN(CC4CCN(c5ccc6c(c5)C(=O)N(C5CCC(=O)NC5=O)C6=O)CC4)CC3)cc2)ncc1C(F)(F)F)S(C)(=O)=O` (stereo not drawn) [Compound A4, N-(1-((1-(2-(2,6-dioxopiperidin-3-yl)-1,3-dioxoisoindolin-5-yl)piperidin-4-yl)methyl)piperidin-4-yl)-4-((4-(((3-(N-methylmethylsulfonamido)pyrazin-2-yl)methyl)amino)-5-(trifluoromethyl)pyrimidin-2-yl)amino)benzamide], at FAK [1], the DC50 turned out to be 0.5 nM and the Dmax was found to be 92%. In addition, the pIC50 on FAK [2] was 9.40.
As to `Cc1cc(OCCOCCOCCOc2ccc3c(c2)C(=O)N(C2CCC(=O)NC2=O)C3=O)ccc1Nc1ncc(C(F)(F)F)c(NCc2cccc(N(C)S(C)(=O)=O)c2)n1` (stereo not drawn) [Compound A1, N-(3-(((2-((4-(2-(2-(2-((2-(2,6-dioxopiperidin-3-yl)-1,3-dioxoisoindolin-5-yl)oxy)ethoxy)ethoxy)ethoxy)-2-methylphenyl)amino)-5-(trifluoromethyl)pyrimidin-4-yl)-amino)methyl)phenyl)-N-methylmethanesulfonamide], at FAK [1], the DC50 was found to be 7 nM and the Dmax is 89%. For the same compound, the negative-log IC50 (pIC50) at FAK [2] is 8.35.
